# Results from patent US12473283B2, “Compounds and their use” (Debiopharm International S.A., priority 2019, dated 2025).
# Like-named read-outs stand apart in the source and are kept apart here.
# Experiments:
# [1] = target: FabI enzyme from Escherichia coli (Escherichia coli, UniProt P0AEK4); experiment: Inhibition of FabI enzyme, rate of NADH consumption; assay type: biochemical
# Procedure: (§1) Inhibition of FabI enzyme from Acinetobacter baumannii and Escherichia coli was tested by measuring the rate of NADH consumption (Δabsorbance at 340 nm/min) at 30° C. in 96-well plate format using an automated plate reader in the presence or absence of the test compounds. The assay mixture contained 100 mM Tris-HCl, pH 7.25 (A. baumannii) or 7.5 (E. coli), 100 mM ammonium acetate, 0.02% (A. baumannii) or 0.05% (E. coli) Pluronic F-68, 25 μM crotonyl ACP, 50 μM NADH, 25 pM (A. baumannii) or 50 pM (E. coli) recombinant FabI protein, and 7.5% DMSO. Test compounds were added at concentrations ranging from 0.17 to 10,000 nM in a final well volume of 100 μl. This dose-response inhibitory assay was performed using a 10-point, serial dilution series for each test compound. IC50 values for each test compound were assigned from logistical sigmoid curve-fitting of the inhibition dose response curves.
# [2] = test system: A. baumannii ATCC BAA1605; experiment: Broth microdilution MIC assay; assay type: cell-based; conditions: Acinetobacter baumannii, ATCCBAA1605; CA-MHB, 35° C., 20 hours
# Procedure: (§2) The antibacterial activity of FabI inhibitors against select Gram-negative and Gram-positive bacterial species including susceptible and multi-drug resistant A. baumannii, E. coli, K. pneumoniae and S. aureus was tested using the broth microdilution Minimal Inhibitory Concentration (MIC) assay following CLSI guidelines for insoluble compounds. Test articles were serially diluted 2-fold in 100% dimethyl sulfoxide (DMSO) and then diluted 100-fold into cation adjusted Mueller-Hinton broth (CA-MHB) to achieve a 10-point test concentration range in 1% DMSO. Final compound concentrations were 0.016-8 μg/ml for S. aureus or 0.06-32 μg/ml for the Gram-negative species. MIC test plates were then prepared by transferring 100 μl of the final assay medium (test article in CA-MHB, 1% DMSO) into the appropriate wells of a sterile, low binding 96-well polystyrene plate. Direct colony suspension inoculums of the test strains were freshly prepared per CLSI guidelines, and the appropriate test wells were inoculated to achieve a final bacterial cell density of 5×10^5 CFU/ml. Growth control (no test article) and negative control (no bacterial inoculum) wells were also included. Exposure to light was minimized during all stages of assay preparation. […] Bacterial growth was then determined by measuring the optical density at 600 nm (OD600) using a SpectraMax Plus plate-reader spectrophotometer.
# [3] = test system: K. pneumoniae A6030827; experiment: Broth microdilution MIC assay; assay type: cell-based; conditions: Klebsiella pneumoniae, CA-MHB, 35° C., 20 hours
# Procedure: as §2
# [4] = test system: S. aureus ATCC 29213; experiment: Broth microdilution MIC assay; assay type: cell-based; conditions: Staphylococcus aureus, ATCC29213; CA-MHB, 35° C., 20 hours
# Procedure: as §2
# [5] = target: FabI enzyme from Acinetobacter baumannii (Acinetobacter baumannii, UniProt D0CAD5); experiment: Inhibition of FabI enzyme, rate of NADH consumption; assay type: biochemical
# Procedure: as §1
# [6] = test system: E. coli AG100; experiment: Broth microdilution MIC assay; assay type: cell-based; conditions: Escherichia coli, CA-MHB, 35° C., 20 hours
# Procedure: as §2
# [7] = recombinant FabI, 30° C., pH 7.5, read-out: E. coli Fabl IC50
# [8] = recombinant FabI, 30° C., pH 7.25, read-out: A. baumannii Fabl IC50
# FabI enzyme from Acinetobacter baumannii, sequence (D0CAD5 entry or part of it): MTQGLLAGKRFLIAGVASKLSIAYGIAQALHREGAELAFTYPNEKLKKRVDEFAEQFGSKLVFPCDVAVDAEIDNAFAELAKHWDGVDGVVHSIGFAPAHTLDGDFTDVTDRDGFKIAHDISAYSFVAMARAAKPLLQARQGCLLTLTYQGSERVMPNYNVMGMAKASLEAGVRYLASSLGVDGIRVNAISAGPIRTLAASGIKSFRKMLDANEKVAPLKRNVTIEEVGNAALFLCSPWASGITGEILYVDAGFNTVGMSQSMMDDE
# FabI enzyme from Escherichia coli, sequence (P0AEK4 whole entry): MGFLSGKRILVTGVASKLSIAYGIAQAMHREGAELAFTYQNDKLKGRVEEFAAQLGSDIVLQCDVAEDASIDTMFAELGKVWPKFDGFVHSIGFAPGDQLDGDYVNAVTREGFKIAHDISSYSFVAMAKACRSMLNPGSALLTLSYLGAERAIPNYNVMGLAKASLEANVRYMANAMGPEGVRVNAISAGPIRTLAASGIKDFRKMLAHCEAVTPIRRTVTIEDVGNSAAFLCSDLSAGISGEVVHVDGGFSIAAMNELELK
MIC [3] [µg/mL],"IC50 [5, 8] [nM]",Compound,"IC50 [1, 7] [nM]",MIC [2] [µg/mL],MIC [4] [µg/mL],IC50 [5] [nM],IC50 [1] [nM],MIC [6] [µg/mL]
,,"Cc1c(CN(C)C(=O)/C=C/c2cnc3c(c2)CC[C@H](N)C(=O)N3)oc2ccccc12.Cl (single isomer, unassigned) [Compound 71, hydrochloride]",,,,< 10,< 10,
≤ 4,< 10,"Cc1c(CN(C)C(=O)C=Cc2cnc3c(c2)CCC(N)C(=O)N3)oc2cccc(OC3CCC(N)CC3)c12 (single isomer, unassigned) [Compound 86]",,≤ 4,≤ 4,,,≤ 4
≤ 4,< 10,"Cc1c(CN(C)C(=O)/C=C/c2cnc3c(c2)CC[C@H](N(C)C)C(=O)N3)oc2ccccc12 (single isomer, unassigned) [Compound 96]",,≤ 4,≤ 4,,,8
≤ 4,< 10,"Cc1c(CN(C)C(=O)/C=C/c2cnc3c(c2)CC[C@H](N2CCOCC2)C(=O)N3)oc2c(F)cccc12 (single isomer, unassigned) [Compound 113]",,≤ 4,≤ 4,,,8
,,"Cc1c(CN(C)C(=O)/C=C/c2cnc3c(c2)CC[C@H](N)C(=O)N3)sc2ccccc12.Cl (single isomer, unassigned) [Compound 119, hydrochloride]",,,,< 10,< 10,
≤ 4,< 10,"Cc1c(CN(C)C(=O)/C=C/c2cnc3c(c2)CC[C@H](N2CC(O)C2)C(=O)N3)oc2ccccc12 (single isomer, unassigned) [Compound 171]",,≤ 4,≤ 4,,,≤ 4
,,"Cc1oc2c(N)cccc2c1CN(C)C(=O)/C=C/c1cnc2c(c1)CC[C@H](N)C(=O)N2 (single isomer, unassigned) [Compound 193]",< 10,≤ 4,≤ 4,,,≤ 4
≤ 4,< 10,"Cc1c(CN(C)C(=O)/C=C/c2cnc3c(c2)CCC(N(C)C)C(=O)N3)oc2ccccc12 (stereo not drawn) [Compound 95, (E)-3-(7-(dimethylamino)-8-oxo-6,7,8,9-tetrahydro-5H-pyrido[2,3-b]azepin-3-yl)-N-methyl-N-((3-methylbenzofuran-2-yl)methyl)acrylamide]",,≤ 4,≤ 4,,,≤ 4
≤ 4,< 10,"Cc1c(CN(C)C(=O)/C=C/c2cnc3c(c2)CCC(N2CC4(CCOCC4)C2)C(=O)N3)oc2ccccc12 (stereo not drawn) [Compound 176, (E)-N-methyl-N-((3-methylbenzofuran-2-yl)methyl)-3-(8-oxo-7-(7-oxa-2-azaspiro[3.5]nonan-2-yl)-6,7,8,9-tetrahydro-5H-pyrido[2,3-b]azepin-3-yl)acrylamide]",,≤ 4,≤ 4,,,≤ 4
8,< 10,"Cc1c(CN(C)C(=O)/C=C/c2cnc3c(c2)CCC(N2CCS(=O)(=O)CC2)C(=O)N3)oc2ccccc12 (stereo not drawn) [Compound 179, (E)-3-(7-(1,1-dioxidothiomorpholino)-8-oxo-6,7,8,9-tetrahydro-5H-pyrido[2,3-b]azepin-3-yl)-N-methyl-N-((3-methylbenzofuran-2-yl)methyl)acrylamide]",,≤ 4,≤ 4,,,8
,,"Cc1oc2c(N)cccc2c1CN(C)C(=O)/C=C/c1cnc2c(c1)CCC(N1CCCC1)C(=O)N2 (stereo not drawn) [Compound 191, (E)-N-((7-amino-2-methylbenzofuran-3-yl)methyl)-N-methyl-3-(8-oxo-7-(pyrrolidin-1-yl)-6,7,8,9-tetrahydro-5H-pyrido[2,3-b]azepin-3-yl)acrylamide]",< 10,≤ 4,≤ 4,,,8

Compound,MIC [3] [µg/mL],"IC50 [5, 8] [nM]","IC50 [1, 7] [nM]",MIC [2] [µg/mL],MIC [4] [µg/mL],IC50 [5] [nM],IC50 [1] [nM],MIC [6] [µg/mL]
"Cc1c(CN(C)C(=O)/C=C/c2cnc3c(c2)NC[C@@H](N2C[C@@H](C)O[C@@H](C)C2)C(=O)N3)oc2ccccc12 (single isomer, unassigned) [Compound 21]",16,,< 10,≤ 4,≤ 4,,,
"Cc1oc2ccccc2c1CN(C)C(=O)/C=C/c1cnc2c(c1)NC[C@H](N1CC3(COC3)C1)C(=O)N2 (single isomer, unassigned) [Compound 35]",,< 10,< 10,≤ 4,≤ 4,,,
"Cc1c(CN(C)C(=O)/C=C/c2cnc3c(c2)CC[C@H](N2CC4(COC4)C2)C(=O)N3)oc2ccccc12 (single isomer, unassigned) [Compound 190]",≤ 4,< 10,< 10,≤ 4,≤ 4,,,≤ 4
"Cc1c(CN(C)C(=O)/C=C/c2cnc3c(c2)NC[C@H](N)C(=O)N3)oc2ccccc12 [Compound 8, (S,E)-3-(3-amino-4-oxo-2,3,4,5-tetrahydro-1H-pyrido[2,3-b][1,4]diazepin-8-yl)-N-methyl-N-((3-methylbenzofuran-2-yl)methyl)acrylamide]",≤ 4,< 10,< 10,≤ 4,≤ 4,,,≤ 4
"Cc1c(CN(C)C(=O)/C=C/c2cnc3c(c2)CCC(N)C(=O)N3)oc2c(Cl)cccc12.O=C(O)C(F)(F)F (stereo not drawn) [Compound 92, (E)-3-(7-amino-8-oxo-6,7,8,9-tetrahydro-5H-pyrido[2,3-b]azepin-3-yl)-N-((7-chloro-3-methylbenzofuran-2-yl)methyl)-N-methylacrylamide 2,2,2-trifluoroacetate]",≤ 4,,,8,≤ 4,< 10,,≤ 4
"Cc1oc2ccccc2c1CN(C)C(=O)/C=C/c1cnc2c(c1)CCC(N)C(=O)N2.Cl (stereo not drawn) [Compound 94, (E)-3-(7-amino-8-oxo-6,7,8,9-tetrahydro-5H-pyrido[2,3-b]azepin-3-yl)-N-methyl-N-((2-methylbenzofuran-3-yl)methyl)acrylamide hydrochloride]",≤ 4,,,≤ 4,≤ 4,< 10,,16
"Cc1oc2ccccc2c1CN(C)C(=O)/C=C/c1cnc2c(c1)CCC(N1CCOCC1)C(=O)N2 (stereo not drawn) [Compound 173, (E)-N-methyl-N-((2-methylbenzofuran-3-yl)methyl)-3-(7-morpholino-8-oxo-6,7,8,9-tetrahydro-5H-pyrido[2,3-b]azepin-3-yl)acrylamide]",,< 10,< 10,≤ 4,≤ 4,,,
"Cc1c(CN(C)C(=O)/C=C/c2cnc3c(c2)CCC(N2CCCC2)C(=O)N3)oc2ccccc12 (stereo not drawn) [Compound 182, (E)-N-methyl-N-((3-methylbenzofuran-2-yl)methyl)-3-(8-oxo-7-(pyrrolidin-1-yl)-6,7,8,9-tetrahydro-5H-pyrido[2,3-b]azepin-3-yl)acrylamide]",≤ 4,< 10,< 10,≤ 4,≤ 4,,,≤ 4
